Source: patent US20140328799A1, “COMPOSITIONS USEFUL FOR THE TREATMENT OF VIRAL DISEASES” (priority 2011, published 2014)
Entries after “also recorded” stand apart in the source; their conditions may differ.

Tested on: HCV replicons encoding amino acid variations R155K, A156T, and D168Y in the NS3 protease
Test: HCV replicon TaqMan assay, variants compared with wildtype
Format: cell-based, Hepatitis C virus
Details: NS3 protease variants versus wildtype genotype 1b (con1)
Method: The day prior to titration replicon cells are seeded into a 96-well Costar black-walled clear bottom plate (3,000 cells/well) in 100 μl complete D-MEM and incubated 0/N at 37° C. The next morning 25 μl of compound dilutions (5× final concentration) in complete DMEM and 5% DMSO are added, adjusting the final DMSO concentration to 1.0%. Cells with compound are incubated for 48 hours at 37° C.
Total RNA is isolated from cells of each well using the QIAGEN RNeasy 96-well kit according to manufacturer's instructions (QIAGEN, Inc. Valencia, Calif.). RNA is eluted twice in 60 μl aliquots and combined. […]
The normalized value for the amount of replicon RNA is determined by measuring the experimental cycle threshold CT as described above, determining the amount of RNA against a standard curve of total replicon cell RNA, and normalizing this to the signal produced by the cellular human Cyclophilin A gene using Taqman PDAR Human Cyclophilin (Applied Biosystems Inc., Foster City, Calif.).
HCV replicons encoding amino acid variations R155K, A156T, and D168Y in the NS3 protease have been constructed using standard techniques in molecular cloning. The susceptibility of these replicon variants to inhibition by Compound 6 and a Compound T4, was assessed in the HCV replicon assay, and the results are shown in Table 2. […]

| Structure (SMILES) | change in susceptibility to inhibition of replicon variants versus wildtype |
| --- | --- |
| C[C@@]1(O)[C@H](O)[C@@H](CO)O[C@H]1n1cnc2c(N)ncnc21 [Compound T4] | no significant change in susceptibility to inhibition; also recorded: no loss of potency |
| CC[C@@H]1C[C@]1(NC(=O)[C@@H]1C[C@@H]2CN1C(=O)[C@H](C(C)(C)C)NC(=O)OCC(C)(C)CCCCc1cccc3c1CN(C3)C(=O)O2)C(=O)NS(=O)(=O)C1CC1 [Compound 6] | significantly reduced susceptibility to inhibition; also recorded: significant losses of potency |
